Experimental data taken from patent publication US9723840B2 (SYNGENTA PARTICIPATIONS AG, priority 2013, dated 2017).

Experiments:
Format in all cases: in vivo
Setaria faberi [1] = test: Pre-emergence herbicidal activity, SETFA; parameters: key: 5=total damage to plant; 0=no damage to plant; conditions: 1000 g/Ha, pre-emergence spray, evaluated after 13 days, scale 0-5
Experimental: (§1) Seeds of a variety of test species were sown in standard soil in pots. After cultivation for one day (pre-emergence) under controlled conditions in a glasshouse (at 24/16° C., day/night; 14 hours light; 65% humidity), the plants were sprayed with an aqueous spray solution derived from the formulation of the technical active ingredient in acetone/water (50:50) solution containing 0.5% Tween 20 (polyoxyethelyene sorbitan monolaurate, CAS RN 9005-64-5). The test plants were then grown in a glasshouse under controlled conditions (at 24/16° C., day/night; 14 hours light; 65% humidity) and watered twice daily. After 13 days, the test was evaluated (5=total damage to plant; 0=no damage to plant).

Abutilon theophrasti [2] = test: Post-emergence herbicidal activity, ABUTH; parameters: key: 5=total damage to plant; 0=no damage to plant; conditions: 1000 g/Ha, post-emergence spray (8 days cultivation), evaluated after 13 days, scale 0-5
Experimental: (§2) Seeds of a variety of test species were sown in standard soil in pots. After 8 days cultivation (post-emergence) under controlled conditions in a glasshouse (at 24/16° C., day/night; 14 hours light; 65% humidity), the plants were sprayed with an aqueous spray solution derived from the formulation of the technical active ingredient in acetone/water (50:50) solution containing 0.5% Tween 20 (polyoxyethelyene sorbitan monolaurate, CAS RN 9005-64-5). The test plants were then grown in a glasshouse under controlled conditions (at 24/16° C., day/night; 14 hours light; 65% humidity) and watered twice daily. After 13 days, the test was evaluated (5=total damage to plant; 0=no damage to plant).

Zea mays [3] = test: Post-emergence herbicidal activity, ZEAMX; parameters: key: 5=total damage to plant; 0=no damage to plant; conditions: 1000 g/Ha, post-emergence spray (8 days cultivation), evaluated after 13 days, scale 0-5
Experimental: as §2

Amaranthus retroflexus [4] = test: Pre-emergence herbicidal activity, AMARE; parameters: key: 5=total damage to plant; 0=no damage to plant; conditions: 1000 g/Ha, pre-emergence spray, evaluated after 13 days, scale 0-5
Experimental: as §1

Echinochloa crus-galli [5] = test: Pre-emergence herbicidal activity, ECHCG; parameters: key: 5=total damage to plant; 0=no damage to plant; conditions: 1000 g/Ha, pre-emergence spray, evaluated after 13 days, scale 0-5
Experimental: as §1

Setaria faberi [6] = test: Post-emergence herbicidal activity, SETFA; parameters: key: 5=total damage to plant; 0=no damage to plant; conditions: 1000 g/Ha, post-emergence spray (8 days cultivation), evaluated after 13 days, scale 0-5
Experimental: as §2

Abutilon theophrasti [7] = test: Pre-emergence herbicidal activity, ABUTH; parameters: key: 5=total damage to plant; 0=no damage to plant; conditions: 1000 g/Ha, pre-emergence spray, evaluated after 13 days, scale 0-5
Experimental: as §1

Amaranthus retroflexus [8] = test: Post-emergence herbicidal activity, AMARE; parameters: key: 5=total damage to plant; 0=no damage to plant; conditions: 1000 g/Ha, post-emergence spray (8 days cultivation), evaluated after 13 days, scale 0-5
Experimental: as §2

Zea mays [9] = test: Pre-emergence herbicidal activity, ZEAMX; conditions: 1000 g/Ha, pre-emergence spray, evaluated after 13 days, scale 0-5
Experimental: as §1

Echinochloa crus-galli [10] = test: Post-emergence herbicidal activity, ECHCG; parameters: key: 5=total damage to plant; 0=no damage to plant; conditions: 1000 g/Ha, post-emergence spray (8 days cultivation), evaluated after 13 days, scale 0-5
Experimental: as §2

Alopecurus myosuroides [11] = test: Post-emergence herbicidal activity, ALOMY; parameters: key: 5=total damage to plant; 0=no damage to plant; conditions: 1000 g/Ha, post-emergence spray (8 days cultivation), evaluated after 13 days, scale 0-5
Experimental: as §2

Alopecurus myosuroides [12] = test: Pre-emergence herbicidal activity, ALOMY; conditions: 1000 g/Ha, pre-emergence spray, evaluated after 13 days, scale 0-5
Experimental: as §1

Row | SMILES | SETFA damage score, application pre-emergence (Setaria faberi [1]) | ABUTH damage score, application post-emergence (Abutilon theophrasti [2]) | ZEAMX damage score, application post-emergence (Zea mays [3]) | AMARE damage score, application pre-emergence (Amaranthus retroflexus [4]) | ECHCG damage score, application pre-emergence (Echinochloa crus-galli [5]) | SETFA damage score, application post-emergence (Setaria faberi [6]) | ABUTH damage score, application pre-emergence (Abutilon theophrasti [7]) | AMARE damage score, application post-emergence (Amaranthus retroflexus [8]) | ZEAMX damage score, application pre-emergence (Zea mays [9]) | ECHCG damage score, application post-emergence (Echinochloa crus-galli [10]) | ALOMY damage score, application post-emergence (Alopecurus myosuroides [11]) | ALOMY damage score, application pre-emergence (Alopecurus myosuroides [12])
1 | CCOC1C(O)N(c2cc(C(F)(F)F)c(Cl)nn2)C(=O)N1C (centres unmarked) [Example A23] | 5 | 5 | 3 | 5 | 5 | 5 | 5 | 5 | 2 | 5 | – | –
2 | COC1C(O)N(c2cc(C(C)(C)F)c(Cl)nn2)C(=O)N1C (centres unmarked) [Example A8] | 5 | 5 | 4 | 5 | 5 | 5 | 5 | 5 | 3 | 5 | 4 | 4
3 | CN1CC(O)N(c2cc(C(C)(C)F)c(Cl)nn2)C1=O (centres unmarked) [Example A1] | 5 | 5 | 5 | 5 | 5 | 5 | 5 | 5 | 4 | 5 | 5 | 4
4 | CN1C(=O)N(c2cc(C(F)(F)F)c(Cl)nn2)C(O)C1O (centres unmarked) [Example A22] | 4 | 5 | 3 | 5 | 2 | 5 | 5 | 5 | 1 | 5 | – | –
5 | CC1C(O)N(c2ccc(C(=O)NC(C)(C)C#N)nn2)C(=O)N1C (centres unmarked) [Example A13] | 4 | 5 | 1 | 5 | 4 | 5 | 5 | 5 | 3 | 3 | 4 | 4
6 | CON1C(=O)N(c2ccc(C(=O)NC(C)(C)C)nn2)C(O)C1C (centres unmarked) [Example A14] | 4 | 5 | 5 | 5 | 4 | 5 | 5 | 5 | 2 | 5 | 5 | 4
7 | CCOC1C(O)N(c2cc(C(F)(F)F)cnn2)C(=O)N1C (centres unmarked) [Example A24] | 5 | – | – | 5 | 4 | – | 5 | – | 2 | 5 | – | –
8 | CC1C(O)N(c2cc(C(C)(C)F)c(-c3ccccc3)nn2)C(=O)N1C (centres unmarked) [Example A3] | 5 | 5 | 4 | 5 | 4 | 5 | 5 | 5 | 3 | 5 | 4 | 4
9 | CON1C(=O)N(c2cc(C(C)(C)F)c(Cl)nn2)C(O)C1C (centres unmarked) [Example A6, 1-[6-chloro-5-(1-fluoro-1-methyl-ethyl)pyridazin-3-yl]-5-hydroxy-3-methoxy-4-methyl-imidazolidin-2-one] | 4 | 5 | 5 | 5 | 4 | 5 | 5 | 5 | 3 | 5 | 4 | 3
10 | CN1CC(O)N(c2cc(C(C)(C)F)cnn2)C1=O (centres unmarked) [Example A18] | 4 | 5 | 4 | 5 | 5 | 5 | 5 | 5 | 2 | 5 | – | –
11 | CC1C(O)N(c2cc(C(F)(F)F)cnn2)C(=O)N1C (centres unmarked) [Example A21] | 5 | 5 | 5 | 5 | 5 | 5 | 5 | 5 | 3 | 5 | – | –
12 | CC1C(O)N(c2cc(C(F)(F)F)c(Cl)nn2)C(=O)N1C (centres unmarked) [Example A16] | 3 | 5 | 3 | 5 | 5 | 5 | 5 | 5 | 3 | 5 | – | –
13 | CN1CC(O)N(c2ccc(C(=O)NC(C)(C)C)nn2)C1=O (centres unmarked) [Example A25] | 5 | 5 | 3 | 5 | 5 | 5 | 5 | 5 | 2 | 5 | – | –
14 | CN1CC(O)N(c2cc(C(C)(C)F)c(-c3ccccc3)nn2)C1=O (centres unmarked) [Example A4] | 5 | 5 | 5 | 5 | 5 | 5 | – | 5 | – | 5 | 5 | 4
15 | CN1CC(O)N(c2cc(C(C)(F)F)cnn2)C1=O (centres unmarked) [Example A20] | 5 | 5 | 5 | 5 | 5 | 5 | 5 | 5 | 3 | 5 | – | –
